Test results: patent US11111237B2, “Bicyclic compound and use thereof” (SK BIOPHARMACEUTICALS CO., LTD., priority 2019, dated 2021)

Assays:
[1] = system: SDMA levels in the tumor (U87MG tumor cells implanted subcutaneously); assay: Test for in vivo target inhibitory activity (SDMA levels in U87MG tumor); conditions: U87MG tumor in nude mice, oral 25 or 50 mg/kg 1-2 times daily for one week
Experimental: Test for in vivo target inhibitory activity
After U87MG tumor cells were implanted subcutaneously in nude mice, a PRMT5 inhibitor was administered orally (25 or 50 mg/kg) 1-2 times daily for one week, and then the degree to which SDMA levels in the tumor decreased was measured.
Reagents: Bradford's solution (Catalog No. 500-0006) was purchased from Bio-rad (USA). SDMA antibody (Catalog No. 13222s) was purchased from Cell Signaling Technology (USA). SmD3 antibody (Catalog No. ap12451a) was purchased from Abgent (USA), and secondary antibody (Catalog No. ab6721) and TMB substrate (Catalog No. ab210902) were purchased from Abcam (UK).
Experimental procedure: The tumor tissues transplanted into the mice were excised, the cells were lysed, and then quantified with Bradford's solution. 5-10 μg of protein per sample was diluted with carbonate-bicarbonate buffer and dispensed into a 96-well plate and reacted at room temperature for 2 hours. After washing with phosphate buffered saline (PBST) containing 0.05% Tween-20 3 times, 200 μL of PBST containing 5% bovine serum albumin (BSA-PBST) was added and reacted at room temperature for 2 hours. After washing with PBST 3 times, the SDMA antibody and the SmD3 antibody were diluted in BSA-PBST, and 100 μL of each was dispensed onto the plate and reacted at 4° C. overnight. After washing with PBST 3 times the next day, 100 μL of the secondary antibody diluted in BSA-PBST was added and reacted at room temperature for 1 hour. After washing with PBST 3 times, 100 μL of TMB substrate was added and reacted at room temperature for 10-20 minutes, and 100 μL of 1N sulfuric acid solution was added to terminate the reaction. Then, the absorbance at 450 nm was measured to calculate the degree of SDMA inhibition by the compound. (+++: more than 70%, ++: more than 30% and 70% or less, +: 30% or less)

[2] = biological target: PRMT5-MEP50 enzyme complex (Homo sapiens (Human), UniProt O14744); assay: PRMT5 enzyme activity in vitro assay (methylation of histone H4R3, ELISA absorbance at 450 nm); type: biochemical; conditions: SAM, histone H4 peptide, room temperature 2 hours, 8 points from 10 μM to 0.128 nM
PRMT5-MEP50 enzyme complex, sequence (O14744 2-637): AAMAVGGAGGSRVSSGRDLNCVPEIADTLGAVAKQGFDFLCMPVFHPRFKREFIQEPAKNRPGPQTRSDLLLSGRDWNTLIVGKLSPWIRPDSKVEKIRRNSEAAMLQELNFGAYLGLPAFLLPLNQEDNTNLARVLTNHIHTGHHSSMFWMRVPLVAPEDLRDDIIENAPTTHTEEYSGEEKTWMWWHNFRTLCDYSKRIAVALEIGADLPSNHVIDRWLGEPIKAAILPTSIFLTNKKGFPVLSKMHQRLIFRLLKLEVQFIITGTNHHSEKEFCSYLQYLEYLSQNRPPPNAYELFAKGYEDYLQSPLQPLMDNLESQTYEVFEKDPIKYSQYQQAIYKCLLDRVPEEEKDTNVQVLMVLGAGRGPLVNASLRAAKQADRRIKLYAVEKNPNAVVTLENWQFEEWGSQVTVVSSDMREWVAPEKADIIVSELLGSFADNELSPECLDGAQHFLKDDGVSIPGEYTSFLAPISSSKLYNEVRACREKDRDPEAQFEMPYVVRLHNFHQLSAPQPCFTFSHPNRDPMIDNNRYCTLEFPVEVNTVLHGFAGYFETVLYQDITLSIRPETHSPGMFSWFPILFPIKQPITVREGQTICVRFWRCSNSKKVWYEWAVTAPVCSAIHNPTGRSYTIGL
PRMT5-MEP50 enzyme complex, sequence (Q9BQA1 2-342 partner): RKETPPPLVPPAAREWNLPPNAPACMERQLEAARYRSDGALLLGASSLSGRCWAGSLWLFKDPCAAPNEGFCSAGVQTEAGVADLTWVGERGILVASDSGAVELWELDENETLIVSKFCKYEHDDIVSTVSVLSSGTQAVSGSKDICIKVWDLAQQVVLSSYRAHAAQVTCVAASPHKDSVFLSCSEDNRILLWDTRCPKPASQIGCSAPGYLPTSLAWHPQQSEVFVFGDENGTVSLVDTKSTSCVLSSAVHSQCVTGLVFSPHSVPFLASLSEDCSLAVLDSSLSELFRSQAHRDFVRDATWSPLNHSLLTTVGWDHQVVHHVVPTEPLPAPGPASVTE
In short: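 IC50 was derived from ELISA absorbance at 450 nm, using primary and HRP antibodies against H4R3 methylation on immobilised histone H4 peptide (residues 1-20). Compounds (10 μM to 0.128 nM, 8 points, 1:5) were incubated 2 h at room temperature with the PRMT5-MEP50 complex and SAM, diluted to 5 μg/mL and 2 μM respectively.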

Row | Structure (SMILES) | SDMA inhibition (%) [1] | IC50 [2]
1 | O=C1c2ccc(CN3CCOCC3)cc2OCCN1C[C@H](O)CN1CCc2ccccc2C1 [Example 22, 4-[(2R)-3-(3,4-dihydro-1H-isoquinolin-2-yl)-2-hydroxy-propyl]-8-(morpholinomethyl)-2,3-dihydro-1,4-benzoxazepin-5-one] | +++ (+++: more than 70%) | 1 to 100 nM
2 | CN1CCC(Oc2ccc3c(c2)OCCN(C[C@H](O)CN2CCc4ccccc4C2)C3=O)CC1 [Example 87, 4-[(2R)-3-(3,4-dihydro-1H-isoquinolin-2-yl)-2-hydroxy-propyl]-8-[(1-methyl-4-piperidyl)oxy]-2,3-dihydro-1,4-benzoxazepin-5-one] | +++ (+++: more than 70%) | 1 to 100 nM
3 | CCN1CCC(Oc2ccc3c(c2)OCCN(C[C@H](O)CN2CCc4ccccc4C2)C3=O)CC1 [Example 88, 4-[(2R)-3-(3,4-dihydro-1H-isoquinolin-2-yl)-2-hydroxy-propyl]-8-[(1-ethyl-4-piperidyl)oxy]-2,3-dihydro-1,4-benzoxazepin-5-one] | +++ (+++: more than 70%) | 1 to 100 nM
4 | O=C1c2ccc(OC3CCN(C4COC4)CC3)cc2OCCN1C[C@H](O)CN1CCc2ccccc2C1 [Example 92, 4-[(2R)-3-(3,4-dihydro-1H-isoquinolin-2-yl)-2-hydroxy-propyl]-8-[[1-(oxetan-3-yl)-4-piperidyl]oxy]-2,3-dihydro-1,4-benzoxazepin-5-one] | +++ (+++: more than 70%) | 100 to 1000 nM
5 | CCCc1ccc2c(c1)OCCN(C[C@H](O)CN1CCc3ccccc3C1)C2=O [Example 11, 4-[(2R)-3-(3,4-dihydro-1H-isoquinolin-2-yl)-2-hydroxy-propyl]-8-propyl-2,3-dihydro-1,4-benzoxazepin-5-one] | ++ (++: more than 30% and 70% or less) | 100 to 1000 nM
6 | O=C1c2ccc(Br)cc2CCCN1C[C@H](O)CN1CCc2ccccc2C1 [Example 155, 7-bromo-2-[(2R)-3-(3,4-dihydro-1H-isoquinolin-2-yl)-2-hydroxy-propyl]-4,5-dihydro-3H-2-benzazepin-1-one] | + (+: 30% or less) | 1 to 100 nM
7 | CN1CCC(Oc2ccc3c(c2)OC(C)(C)CN(C[C@H](O)CN2CCc4ccccc4C2)C3=O)CC1 [Example 112, 4-[(2R)-3-(3,4-dihydro-1H-isoquinolin-2-yl)-2-hydroxy-propyl]-2,2-dimethyl-8-[(1-methyl-4-piperidyl)oxy]-3H-1,4-benzoxazepin-5-one] | +++ (+++: more than 70%) | 100 to 1000 nM
8 | CN1CCN(C[C@H](O)CN2CCc3ccccc3C2)C(=O)c2ccc(Br)cc21 [Example 156, 8-bromo-4-[(2R)-3-(3,4-dihydro-1H-isoquinolin-2-yl)-2-hydroxy-propyl]-1-methyl-2,3-dihydro-1,4-benzodiazepin-5-one] | ++ (++: more than 30% and 70% or less) | 1 to 100 nM
